Data as given in ChEMBL document CHEMBL1130335, “Comparative molecular field analysis of a series of paclitaxel analogues” (J Med Chem, 1997).

Assay: Measured activity expressed as ID50 (analogue)/ID50 (paclitaxel), where ID50 is the concentration of compound leading to 50% inhibition of the rate microtubule disassembly
Assay type: functional

Row | SMILES | Activity
1 | CC(=O)O[C@H]1C(=O)[C@]2(C)[C@@H](O)CC3OC[C@@]3(OC(C)=O)[C@H]2[C@H](OC(=O)c2ccccc2)[C@]2(O)C[C@H](OC(=O)[C@@H](O)[C@@H](NC(=O)OC(C)(C)C)c3ccccc3)C(C)=C1C2(C)C (stereo not given in full) | 30
2 | CC(=O)O[C@H]1C(=O)[C@]2(C)[C@@H](O)CC3OC[C@@]3(OC(C)=O)[C@H]2[C@H](OC(=O)c2ccccc2)[C@]2(O)C[C@H](OC(=O)[C@H](O)[C@H](NC(=O)CC(C)C)c3ccccc3)C(C)=C1C2(C)C (stereo not given in full) | 1.9
3 | COc1ccc([C@@H](NC(=O)c2ccccc2)[C@@H](O)C(=O)O[C@H]2C[C@@]3(O)[C@@H](OC(=O)c4ccccc4)[C@H]4[C@](C)(C(=O)[C@H](OC(C)=O)C(=C2C)C3(C)C)[C@@H](O)CC2OC[C@]24OC(C)=O)cc1 (stereo not given in full) | 0.5
4 | CC(=O)O[C@H]1C(=O)[C@]2(C)[C@@H](O)CC3OC[C@@]3(OC(C)=O)[C@H]2[C@H](OC(=O)c2ccccc2)[C@]2(O)C[C@H](OC(=O)[C@H](O)[C@H](NC(=O)c3ccccc3)c3ccco3)C(C)=C1C2(C)C (stereo not given in full) | 0.9
5 | CC(=O)O[C@@]12COC1C[C@H](O)[C@@]1(C)C(=O)[C@H](O)C3=C(C)[C@@H](OC(=O)[C@H](O)[C@@H](C=C(C)C)NC(=O)OC(C)(C)C)C[C@@](O)([C@@H](OC(=O)c4ccccc4)[C@@H]12)C3(C)C (stereo not given in full) | 0.64
6 | CC(=O)O[C@H]1C(=O)[C@]2(C)[C@@H](O)CC3OC[C@@]3(OC(C)=O)[C@H]2[C@H](OC(=O)c2ccccc2)[C@]2(O)C[C@H](OC(=O)[C@H](O)[C@H](NC(=O)c3ccccc3)c3ccc(O)cc3)C(C)=C1C2(C)C (stereo not given in full) | 0.8
7 | CC(=O)O[C@H]1C(=O)[C@]2(C)[C@@H](O)CC3OC[C@@]3(OC(C)=O)[C@H]2[C@H](OC(=O)c2ccccc2)[C@]2(O)C[C@H](OC(=O)[C@H](O)[C@@H](NC(=O)c3ccccc3)C3CCCCC3)C(C)=C1C2(C)C (stereo not given in full) | 0.29
8 | CC(=O)O[C@@]12COC1C[C@H](O)[C@@]1(C)C(=O)[C@H](O)C3=C(C)[C@@H](OC(=O)[C@H](O)Cc4ccccc4)C[C@@](O)([C@@H](OC(=O)c4ccccc4)[C@@H]12)C3(C)C (stereo not given in full) | 4.5
9 | C/C=C(/C)C(=O)N[C@H](c1ccccc1)[C@@H](O)C(=O)O[C@H]1C[C@@]2(O)[C@@H](OC(=O)c3ccccc3)[C@H]3[C@](C)(C(=O)[C@H](OC(C)=O)C(=C1C)C2(C)C)[C@@H](O)CC1OC[C@]13OC(C)=O (stereo not given in full) | 1.5
10 | CC(=O)O[C@H]1C(=O)[C@]2(C)[C@@H](O)CC3OC[C@@]3(OC(C)=O)[C@H]2[C@H](OC(=O)c2ccccc2)[C@]2(O)C[C@H](OC(=O)[C@H](O)[C@H](NC(=O)c3ccc(Cl)cc3)c3ccccc3)C(C)=C1C2(C)C (stereo not given in full) | 2.4
11 | CC(=O)O[C@H]1C(=O)[C@]2(C)[C@@H](O)CC3OC[C@@]3(OC(C)=O)[C@H]2[C@H](OC(=O)c2ccccc2)[C@]2(O)C[C@H](OC(=O)[C@@H](NC(=O)c3ccccc3)[C@@H](O)c3ccccc3)C(C)=C1C2(C)C (stereo not given in full) | 110
12 | CC(=O)O[C@@]12COC1C[C@H](O)[C@@]1(C)C(=O)[C@H](O)C3=C(C)[C@@H](OC(=O)/C=C/c4ccccc4)C[C@@](O)([C@@H](OC(=O)c4ccccc4)[C@@H]12)C3(C)C (stereo not given in full) | 23
13 | CCCCOC(=O)N[C@H](c1ccccc1)[C@@H](O)C(=O)O[C@H]1C[C@@]2(O)[C@@H](OC(=O)c3ccccc3)[C@H]3[C@](C)(C(=O)[C@H](OC(C)=O)C(=C1C)C2(C)C)[C@@H](O)CC1OC[C@]13OC(C)=O (stereo not given in full) | 0.8
14 | CC(=O)O[C@H]1C(=O)[C@]2(C)[C@@H](O)CC3OC[C@@]3(OC(C)=O)[C@H]2[C@H](OC(=O)c2ccccc2)[C@]2(O)C[C@H](OC(=O)[C@H](O)[C@H](NC(=O)c3ccccc3)c3ccc(C)cc3)C(C)=C1C2(C)C (stereo not given in full) | 0.8
15 | CC(=O)O[C@@]12COC1C[C@H](O)[C@@]1(C)C(=O)[C@H](O)C3=C(C)[C@@H](OC(=O)[C@@H](NC(=O)OC(C)(C)C)[C@@H](O)c4ccccc4)C[C@@](O)([C@@H](OC(=O)c4ccccc4)[C@@H]12)C3(C)C (stereo not given in full) | 160
16 | CC(=O)O[C@@]12COC1C[C@H](O)[C@@]1(C)C(=O)[C@H](O)C3=C(C)[C@@H](OC(=O)C(O)C(O)c4ccccc4)C[C@@](O)([C@@H](OC(=O)c4ccccc4)[C@@H]12)C3(C)C (stereo not given in full) | 3
17 | CC(=O)O[C@H]1C(=O)[C@]2(C)[C@@H](O)CC3OC[C@@]3(OC(C)=O)[C@H]2[C@H](OC(=O)c2ccccc2)[C@]2(O)C[C@H](OC(=O)[C@@H](O)[C@@H](NC(=O)c3ccccc3)c3ccccc3)C(C)=C1C2(C)C (stereo not given in full) | 4.5
18 | CC(=O)O[C@@H]1C2=C(C)[C@@H](OC(=O)[C@H](O)[C@@H](NC(=O)OC(C)(C)C)C(O)CO)C[C@@](O)([C@@H](OC(=O)c3ccccc3)[C@H]3[C@@](C)([C@@H](O)CC4OC[C@]43OC(C)=O)[C@H]1O)C2(C)C (stereo not given in full) | 2.71
19 | CC(=O)O[C@@]12COC1C[C@H](O)[C@@]1(C)C(=O)[C@H](O)C3=C(C)[C@@H](OC(=O)[C@@H](NC(=O)c4ccccc4)[C@@H](O)c4ccccc4)C[C@@](O)([C@@H](OC(=O)c4ccccc4)[C@@H]12)C3(C)C (stereo not given in full) | 170
20 | COC[C@H](NC(=O)c1ccccc1)[C@@H](O)C(=O)O[C@H]1C[C@@]2(O)[C@@H](OC(=O)c3ccccc3)[C@H]3[C@@](C)([C@@H](O)CC4OC[C@]43OC(C)=O)[C@@H](O)[C@H](OC(C)=O)C(=C1C)C2(C)C (stereo not given in full) | 3.14

Row | SMILES | Activity
21 | CC(=O)O[C@H]1C(=O)[C@]2(C)[C@@H](O)CC3OC[C@@]3(OC(C)=O)[C@H]2[C@H](OC(=O)c2ccccc2)[C@]2(O)C[C@H](OC(=O)[C@H](O)[C@H](NC(=O)C(C)=O)c3ccccc3)C(C)=C1C2(C)C (stereo not given in full) | 3.5
22 | CC(=O)O[C@H]1C(=O)[C@]2(C)[C@@H](O)CC3OC[C@@]3(OC(C)=O)[C@H]2[C@H](OC(=O)c2ccccc2)[C@]2(O)C[C@H](OC(=O)[C@H](O)[C@H](NC(=O)c3ccccc3)c3ccccn3)C(C)=C1C2(C)C (stereo not given in full) | 0.7
23 | CC(=O)O[C@H]1C(=O)[C@]2(C)[C@@H](O)CC3OC[C@@]3(OC(C)=O)[C@H]2[C@H](OC(=O)c2ccccc2)[C@]2(O)C[C@H](OC(=O)[C@H](NC(=O)OC(C)(C)C)[C@H](O)c3ccccc3)C(C)=C1C2(C)C (stereo not given in full) | 10
24 | COC(=O)[C@@H](C(=O)O[C@H]1C[C@@]2(O)[C@@H](OC(=O)c3ccccc3)[C@H]3[C@](C)(C(=O)[C@H](OC(C)=O)C(=C1C)C2(C)C)[C@@H](O)CC1OC[C@]13OC(C)=O)[C@H](NC(=O)c1ccccc1)c1ccccc1 (stereo not given in full) | 30
25 | CC(=O)O[C@H]1C(=O)[C@]2(C)[C@@H](O)CC3OC[C@@]3(OC(C)=O)[C@H]2[C@H](OC(=O)c2ccccc2)[C@]2(O)C[C@H](OC(=O)[C@H](O)[C@H](NC(=O)c3ccccc3)c3cccc4ccccc34)C(C)=C1C2(C)C (stereo not given in full) | 7.1
26 | CC(=O)O[C@H]1C(=O)[C@]2(C)[C@@H](O)CC3OC[C@@]3(OC(C)=O)[C@H]2[C@H](OC(=O)c2ccccc2)[C@]2(O)C[C@H](OC(=O)[C@H](O)[C@H](NC(=O)OC(C)(C)C)c3ccccc3)C(C)=C1C2(C)C (stereo not given in full) | 0.5
27 | CC(=O)O[C@@H]1C2=C(C)[C@@H](OC(=O)[C@H](O)[C@@H](NC(=O)OC(C)C)c3ccccc3)C[C@@](O)([C@@H](OC(=O)c3ccccc3)[C@H]3[C@@](C)([C@@H](O)CC4OC[C@]43OC(C)=O)[C@H]1O)C2(C)C (stereo not given in full) | 0.75
28 | CC(=O)O[C@H]1C(=O)[C@]2(C)[C@@H](O)CC3OC[C@@]3(OC(C)=O)[C@H]2[C@H](OC(=O)c2ccccc2)[C@]2(O)C[C@H](OC(=O)[C@H](NC(=O)c3ccccc3)[C@H](O)c3ccccc3)C(C)=C1C2(C)C (stereo not given in full) | 10
29 | CC(=O)O[C@@]12COC1C[C@H](O)[C@@]1(C)C(=O)[C@H](O)C3=C(C)[C@@H](OC(=O)[C@H](O)[C@H](NC(=O)OC(C)(C)C)c4ccccc4)C[C@@](O)([C@@H](OC(=O)c4ccccc4)[C@@H]12)C3(C)C (stereo not given in full) | 0.6
30 | COc1ccc(C(=O)N[C@H](c2ccccc2)[C@@H](O)C(=O)O[C@H]2C[C@@]3(O)[C@@H](OC(=O)c4ccccc4)[C@H]4[C@](C)(C(=O)[C@H](OC(C)=O)C(=C2C)C3(C)C)[C@@H](O)CC2OC[C@]24OC(C)=O)cc1 (stereo not given in full) | 0.5
31 | CC(=O)O[C@H]1C(=O)[C@]2(C)[C@@H](O)CC3OC[C@@]3(OC(C)=O)[C@H]2[C@H](OC(=O)c2ccccc2)[C@]2(O)C[C@H](OC(=O)[C@H](O)[C@H](N)c3ccccc3)C(C)=C1C2(C)C (stereo not given in full) | 44
32 | CC(=O)O[C@@H]1C2=C(C)[C@@H](OC(=O)[C@H](O)[C@@H](NC(=O)c3ccccc3)c3ccccc3)C[C@@](O)([C@@H](OC(=O)c3ccccc3)[C@H]3[C@@](C)([C@@H](O)CC4OC[C@]43OC(C)=O)[C@H]1O)C2(C)C (stereo not given in full) | 0.86
33 | CC(=O)O[C@H]1C(=O)[C@]2(C)[C@@H](O)CC3OC[C@@]3(OC(C)=O)[C@H]2[C@H](OC(=O)C2CCCCC2)[C@]2(O)C[C@H](OC(=O)[C@H](O)[C@@H](NC(=O)OC(C)(C)C)c3ccccc3)C(C)=C1C2(C)C (stereo not given in full) | 0.67
34 | CC(=O)O[C@@H]1C2=C(C)[C@@H](OC(=O)[C@H](O)[C@H](C)NC(=O)OC(C)(C)C)C[C@@](O)([C@@H](OC(=O)c3ccccc3)[C@H]3[C@@](C)([C@@H](O)CC4OC[C@]43OC(C)=O)[C@H]1O)C2(C)C (stereo not given in full) | 1.08
35 | CC(=O)O[C@H]1C(=O)[C@]2(C)[C@@H](O)CC3OC[C@@]3(OC(C)=O)[C@H]2[C@H](OC(=O)c2ccccc2)[C@]2(O)C[C@H](OC(=O)[C@H](O)[C@H](NC(=O)c3ccccc3)c3ccc(Cl)c(Cl)c3)C(C)=C1C2(C)C (stereo not given in full) | 7.1
36 | CC(=O)O[C@@]12COC1C[C@H](O)[C@@]1(C)C(=O)[C@H](O)C3=C(C)[C@@H](OC(=O)CCc4ccccc4)C[C@@](O)([C@@H](OC(=O)c4ccccc4)[C@@H]12)C3(C)C (stereo not given in full) | 17
37 | CC(=O)O[C@H]1C(=O)[C@]2(C)[C@@H](O)CC3OC[C@@]3(OC(C)=O)[C@H]2[C@H](OC(=O)c2ccccc2)[C@]2(O)C[C@H](OC(=O)[C@H](O)[C@H](NC(=O)CC(C)(C)C)c3ccccc3)C(C)=C1C2(C)C (stereo not given in full) | 0.7
38 | CCOC(=O)N[C@@H](c1ccccc1)[C@@H](O)C(=O)O[C@H]1C[C@@]2(O)[C@@H](OC(=O)c3ccccc3)[C@H]3[C@@](C)([C@@H](O)CC4OC[C@]43OC(C)=O)[C@@H](O)[C@H](OC(C)=O)C(=C1C)C2(C)C (stereo not given in full) | 0.82
39 | CC(=O)O[C@@]12COC1C[C@H](O)[C@@]1(C)C(=O)[C@H](O)C3=C(C)[C@@H](OC(=O)[C@H](NC(=O)c4ccccc4)[C@H](O)c4ccccc4)C[C@@](O)([C@@H](OC(=O)c4ccccc4)[C@@H]12)C3(C)C (stereo not given in full) | 10
40 | CC(=O)O[C@@H]1C2=C(C)[C@@H](OC(=O)[C@H](O)[C@@H](NC(=O)OC(C)(C)C)C3CCCCC3)C[C@@](O)([C@@H](OC(=O)c3ccccc3)[C@H]3[C@@](C)([C@@H](O)CC4OC[C@]43OC(C)=O)[C@H]1O)C2(C)C (stereo not given in full) | 0.57
